Experimental data as given in patent publication US4051253A, “Microbicidal nitrofuryl compounds” (Byk Gulden Lomberg Chemische Fabrik GmbH, priority 1974, dated 1977).
Where two headings read alike, the source gives them in different places.

Columns and labels:
[1] = system: 9 bacteria and 2 yeast strains; assay: In vitro tests with 9 bacteria and 2 yeast strains (summary); type: cell-based; conditions: even with the high concentration of 500 μg/ml
Staph. aur. PCI 1203 = assay: microbe, parasite or virus in culture; type: cell-based; conditions: for MBC: read-out: Concentration from which subcultures no longer started; for MIC: read-out: Minimum inhibiting concentration (MHK), series dilution test
E. coli 6106 = assay: microbe, parasite or virus in culture; type: cell-based; conditions: for MIC: read-out: Minimum inhibiting concentration (MHK), series dilution test
C. Paracrusei 45 = assay: microbe, parasite or virus in culture; type: cell-based; conditions: for MBC: read-out: Concentration from which subcultures no longer started; for MIC: read-out: Minimum inhibiting concentration (MHK), series dilution test
streptococci group A 807 = assay: microbe, parasite or virus in culture; type: cell-based; conditions: for MIC: read-out: Minimum inhibiting concentration (MHK), series dilution test
Trichomonas foetus = assay: Infection tests with Trichomonas foetus in mice; type: in vivo; conditions: for % of Animals Dying After Infection (Mean Value): stomach tube, 3 successive days, NMRI mice
in vivo = conditions: mouse
[2] = system: Serratia marcescens strain HY/a 21
streptococci group C 805 = assay: microbe, parasite or virus in culture; type: cell-based; conditions: for MBC: read-out: Concentration from which subcultures no longer started; for MIC: read-out: Minimum inhibiting concentration (MHK), series dilution test
Klebs. pneum. PCI 602 = assay: microbe, parasite or virus in culture; type: cell-based; conditions: for MBC: read-out: Concentration from which subcultures no longer started; for MIC: read-out: Minimum inhibiting concentration (MHK), series dilution test
streptoc. group B 779 = assay: microbe, parasite or virus in culture; type: cell-based; conditions: for MBC: read-out: Concentration from which subcultures no longer started; for MIC: read-out: Minimum inhibiting concentration (MHK), series dilution test
enterococci = assay: microbe, parasite or virus in culture; type: cell-based; conditions: for MIC: read-out: Minimum inhibiting concentration (MHK), series dilution test
Ps. aeruginosa 2 = assay: microbe, parasite or virus in culture; type: cell-based; conditions: for MIC: read-out: Minimum inhibiting concentration (MHK), series dilution test
Staph. aur. SG 511 = assay: microbe, parasite or virus in culture; type: cell-based; conditions: for MIC: read-out: Minimum inhibiting concentration (MHK), series dilution test
C. Albicans 49 = assay: microbe, parasite or virus in culture; type: cell-based; conditions: Candida albicans; for MIC: read-out: Minimum inhibiting concentration (MHK), series dilution test
S. typhimurium G 46 = conditions: in vivo
[3] = subcultures applied after 48 h, read after 24 h
[4] = 24 h, read-out: Concentration from which subcultures no longer started, subcultures applied after 24 h, read after 24 h
[5] = 48 h, read-out: Concentration from which subcultures no longer started, subcultures applied after 48 h, read after 48 h
[6] = read-out: Concentration from which subcultures no longer started, subcultures applied after 24 h, read after 48 h
[7] = read-out: Concentration from which subcultures no longer started, subcultures applied after 48 h, read after 24 h

## Cc1ncc([N+](=O)[O-])n1CCO [Metronidazol, reference compound]
[1]
  in vitro antibacterial/antiyeast effect (in words): ineffective
Staph. aur. PCI 1203; 24 h
  MBC: > 500 µg/mL
  MIC: > 500 µg/mL
Staph. aur. PCI 1203; 48 h
  MBC: > 500 µg/mL
  MIC: > 500 µg/mL
Staph. aur. PCI 1203
  MBC: > 500 µg/mL
Staph. aur. PCI 1203; [3]
  Concentration from which subcultures no longer started: > 500 µg/mL
E. coli 6106; Escherichia coli, 6106, 24 h, read-out: Concentration from which subcultures no longer started
  MBC: > 500 µg/mL
E. coli 6106; Escherichia coli, 6106, 24 h
  MIC: > 500 µg/mL
E. coli 6106; Escherichia coli, 6106, 48 h, read-out: Concentration from which subcultures no longer started
  MBC: > 500 µg/mL
E. coli 6106; Escherichia coli, 6106, 48 h
  MIC: > 500 µg/mL
E. coli 6106; Escherichia coli, 6106, read-out: Concentration from which subcultures no longer started
  MBC: > 500 µg/mL
E. coli 6106; [3]
  Concentration from which subcultures no longer started: > 500 µg/mL
C. Paracrusei 45; 24 h
  MBC: > 500 µg/mL
  MIC: > 500 µg/mL
C. Paracrusei 45; 48 h
  MBC: > 500 µg/mL
  MIC: > 500 µg/mL
C. Paracrusei 45
  MBC: > 500 µg/mL
C. Paracrusei 45; [3]
  Concentration from which subcultures no longer started: > 500 µg/mL
Streptococci group A 807; [4]
  MBC: > 500 µg/mL
Streptococci group A 807; 24 h
  MIC: > 500 µg/mL
Streptococci group A 807; [5]
  MBC: > 500 µg/mL
Streptococci group A 807; 48 h
  MIC: > 500 µg/mL
Streptococci group A 807; [6]
  MBC: > 500 µg/mL
Streptococci group A 807; [7]
  MBC: > 500 µg/mL
Trichomonas foetus; 6.25 mg/kg
  % of Animals Dying After Infection (Mean Value): 90%
Trichomonas foetus; 12.5 mg/kg
  % of Animals Dying After Infection (Mean Value): 80%
Trichomonas foetus; 25 mg/kg
  % of Animals Dying After Infection (Mean Value): 70%
Trichomonas foetus; 50 mg/kg
  % of Animals Dying After Infection (Mean Value): 15%
Trichomonas foetus; 75 mg/kg
  % of Animals Dying After Infection (Mean Value): 0%
Trichomonas foetus; 100 mg/kg
  % of Animals Dying After Infection (Mean Value): 4%
Trichomonas foetus; dose of 6.25 mg/kg, mice infected with T. foetus
  animals survived / survival rate: 10%
In vivo
  LD50: > 2000 mg/kg
[2]
  Mutants, Test: 5.9 × 10^2 colonies/ml
  Mutation frequency: 3.1 × 10^-6
Streptococci group C 805; 24 h
  MBC: > 500 µg/mL
  MIC: > 500 µg/mL
Streptococci group C 805; 48 h
  MBC: > 500 µg/mL
  MIC: > 500 µg/mL
Streptococci group C 805
  MBC: > 500 µg/mL
Streptococci group C 805; [3]
  Concentration from which subcultures no longer started: > 500 µg/mL
Klebs. pneum. PCI 602; 24 h
  MBC: > 500 µg/mL
  MIC: > 500 µg/mL
Klebs. pneum. PCI 602; 48 h
  MBC: > 500 µg/mL
  MIC: > 500 µg/mL
Klebs. pneum. PCI 602
  MBC: > 500 µg/mL
Klebs. pneum. PCI 602; [3]
  Concentration from which subcultures no longer started: > 500 µg/mL
streptoc. group B 779; 24 h
  MBC: > 500 µg/mL
  MIC: > 500 µg/mL
streptoc. group B 779; 48 h
  MBC: > 500 µg/mL
  MIC: > 500 µg/mL
streptoc. group B 779
  MBC: > 500 µg/mL
streptoc. group B 779; [3]
  Concentration from which subcultures no longer started: > 500 µg/mL
enterococci; [4]
  MBC: > 500 µg/mL
enterococci; 24 h
  MIC: > 500 µg/mL
enterococci; [5]
  MBC: > 500 µg/mL
enterococci; 48 h
  MIC: > 500 µg/mL
enterococci; [6]
  MBC: > 500 µg/mL
enterococci; [7]
  MBC: > 500 µg/mL
Ps. aeruginosa 2; Pseudomonas aeruginosa, 2, 24 h, read-out: Concentration from which subcultures no longer started
  MBC: > 500 µg/mL
Ps. aeruginosa 2; Pseudomonas aeruginosa, 2, 24 h
  MIC: > 500 µg/mL
Ps. aeruginosa 2; Pseudomonas aeruginosa, 2, 48 h, read-out: Concentration from which subcultures no longer started
  MBC: > 500 µg/mL
Ps. aeruginosa 2; Pseudomonas aeruginosa, 2, 48 h
  MIC: > 500 µg/mL
Ps. aeruginosa 2; Pseudomonas aeruginosa, 2, read-out: Concentration from which subcultures no longer started
  MBC: > 500 µg/mL
Ps. aeruginosa 2; [3]
  Concentration from which subcultures no longer started: > 500 µg/mL
Staph. aur. SG 511; [4]
  MBC: > 500 µg/mL
Staph. aur. SG 511; 24 h
  MIC: > 500 µg/mL
Staph. aur. SG 511; [5]
  MBC: > 500 µg/mL
Staph. aur. SG 511; 48 h
  MIC: > 500 µg/mL
Staph. aur. SG 511; [6]
  MBC: > 500 µg/mL
Staph. aur. SG 511; [7]
  MBC: > 500 µg/mL
C. Albicans 49; [4]
  MBC: > 500 µg/mL
C. Albicans 49; 24 h
  MIC: > 500 µg/mL
C. Albicans 49; [5]
  MBC: > 500 µg/mL
C. Albicans 49; 48 h
  MIC: > 500 µg/mL
C. Albicans 49; [6]
  MBC: > 500 µg/mL
C. Albicans 49; [7]
  MBC: > 500 µg/mL
S. typhimurium G 46
  Mutation frequency in test animals: 4.6 . 10^-7

## O=C1CCO1 [β-propiolactone, reference compound]
[2]
  Mutants, Test: 6.6 × 10^2 colonies/ml
  Mutation frequency: 3.4 × 10^-6
